Patent publication US6855730B2, “3-methylidenyl-2-indolinone modulators of protein kinase” (Sugen, Inc., priority 1998, dated 2005)

Legend:
EGFR = EGFR (Homo sapiens, UniProt P00533); assay: Biochemical EGFR assay (ELISA, A431 cell lysate); set-up: A431 cell lysate (Screening Lab, SUGEN, Inc.); host or cells: A431; conditions: read-out: bio EGFr IC50
Experimental: This assay measures the in vitro kinase activity of EGFR using ELISA.
Materials and Reagents • 1. […] SUMO1 monoclonal anti-EGFR antibody (Biochemistry Lab, SUGEN, Inc.). • 3. PBS (Dulbecco's Phosphate-Buffered Saline, Gibco Catalog No. 450-1300EB). • 4. TBST Buffer
• 6. A431 cell lysate (Screening Lab, SUGEN, Inc.) • 7. TBS Buffer:
Prepare a 1.0 mM solution in dH2O. This reagent should be made up immediately prior to use and kept on ice. • 10. MnCl2.
Prepare a 1.0 M stock solution in dH2O. • 11. ATP/MnCl2 phosphorylation mix
This reagent should be prepared immediately before use and kept on ice. • 12. NUNC 96-well V bottom polypropylene plates (Applied Scientific Cat. No. AS-72092). • 13. Ethylenediaminetetraacetic acid (EDTA)
Prepare 200 mM working solution in dH2O. Adjust to pH 8.0 with 10 N NaOH. • 14. Rabbit polyclonal anti-phosphotyrosine serum (Biochemistry Lab, SUGEN, Inc.) • 15. Goat anti-rabbit IgG peroxidase conjugate (Biosource Cat. No. ALI0404) • 16. ABTS (2,2′-azino-bis(3-ethylbenzthiazoline-6-sulfonic acid), Sigma Cat. No. A-1888).
Mix first two ingredients in about 900 ml dH2O, adjust pH to 4.0 with phosphoric acid. Add ABTS, cover, let sit about 0.5 hr., filter. The solution should be kept in the dark at 4° C. until ready to use. • 17. Hydrogen peroxide 30% solution (Fisher Cat. No. H325) • 18. ABTS/H2O2 • Mix 15 ml ABTS solution and 2.0 μl H2O2. Prepare 5 minutes before use. • 19. 0.2 M HCl
Procedure • 1. Coat Corning 96 well ELISA plates with 0.5 μg SUMO1 in 100 μl PBS per well, store overnight at 4° C. • 2. Remove unbound SUMO1 from wells by inverting plate to remove liquid., Wash 1× with dH2O. Pat the plate on a paper towel to remove excess liquid. • 3. Add 150 μl of Blocking Buffer to each well. Incubate for 30 min. at room temperature with shaking. • 4. Wash plate 3× with deionized water, then once with TBST. Pat plate on a paper towel to remove excess liquid and bubbles. • 5. Dilute lysate in PBS (7 μg lysate/100 μl PBS). • 6. Add 100 μl of diluted lysate to each well. Shake at room temperature for 60 min. • 7. Wash plates as described in 4, above. • 8. Add 120 μl TBS to ELISA plate containing captured EGFR. • 9. Dilute test compound 1:10 in TBS in 96-well polypropylene plates (i.e. 10 μl compound+90 μl TBS). • 10. Add 13.5 μl diluted test compound to ELISA plate. […] Incubate for 30 minutes while shaking at room temperature. • 12. […] After 5 minutes, stop reaction by adding 16.5 μl of 200 mM EDTA (pH 8.0) to each well, shaking continuously. After the EDTA has been added, shake for 1 min. • 14. Wash 4× with deionized water, twice with TBST. • 15. Add 100 μl anti-phosphotyrosine (1:3000 dilution in TBST) per well. Incubate 30-45 min. at room temperature, with shaking. • 16. Wash as described in 4, above. • 17. Add 100 μl Biosource Goat anti-rabbit IgG peroxidase conjugate (1:2000 dilution in TBST) to each well. Incubate 30 min. at room temperature, with shaking. • 18. Wash as described in 4, above. • 19. Add 100 μl of ABTS/H2O2 solution to each well. • 20. Incubate 5 to 10 minutes with shaking. Remove any bubbles. • 21. If necessary stop reaction with the addition of 100 μl 1 0.2 M HCl per well. • 22. Read assay on Dynatech MR7000 ELISA reader. Test Filter: 410 nM Reference Filter: 630 Nm.

[1] = molecular target: T1, chimeric receptor containing the EGFR extracellular domain and intracellular HER2 kinase domain (Homo sapiens, UniProt P04626); assay: EGF Receptor-HER2 chimeric receptor assay in whole cells (ELISA); assay type: cell-based; conditions: read-out: HER-2 kinase IC50
T1 construct: fused on or other part: EGFR ectodomain + HER2 intracellular part, ATP-site indolinones: HER2's kinase
T1 sequence (P04626 720-1255 limits assumed, change not shown): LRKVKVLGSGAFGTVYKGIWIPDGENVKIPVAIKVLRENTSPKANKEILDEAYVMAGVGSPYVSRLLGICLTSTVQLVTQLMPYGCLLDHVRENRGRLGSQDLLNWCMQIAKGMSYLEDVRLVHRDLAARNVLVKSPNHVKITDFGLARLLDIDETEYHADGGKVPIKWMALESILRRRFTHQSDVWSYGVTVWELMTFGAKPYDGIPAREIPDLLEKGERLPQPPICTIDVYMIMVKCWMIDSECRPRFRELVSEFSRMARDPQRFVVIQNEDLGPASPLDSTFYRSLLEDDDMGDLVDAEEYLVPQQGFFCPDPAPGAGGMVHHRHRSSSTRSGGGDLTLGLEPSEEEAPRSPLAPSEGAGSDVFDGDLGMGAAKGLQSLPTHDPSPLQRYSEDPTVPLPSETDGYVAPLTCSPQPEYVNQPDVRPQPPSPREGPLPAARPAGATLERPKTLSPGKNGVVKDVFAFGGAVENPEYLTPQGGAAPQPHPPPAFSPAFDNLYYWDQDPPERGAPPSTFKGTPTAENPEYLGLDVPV
Experimental: EGF Receptor-HER2 Chimeric Receptor Assay In Whole Cells.
HER2 kinase activity in whole EGFR-NIH3T3 cells are measured as described below:
• a. […] 05-101 (UBI) (a monoclonal antibody recognizing an EGFR extracellular domain). • c. Anti-phosphotyrosine antibody (anti-Ptyr) (polyclonal) (see, Fendley, et al., supra). • d. Detection antibody: Goat anti-rabbit IgG horseradish peroxidase conjugate, TAGO, Inc., Burlingame, Calif. • e. TBST buffer:
• h. Stock reagents of:
Pre-coat ELISA Plate • 1. […] Coated plates are good for up to 10 days when stored at 4° C. • 2. On day of use, remove coating buffer and replace with 100 μl blocking buffer (5% Carnation Instant Non-Fat Dry Milk in PBS). Incubate the plate, shaking, at room temperature (about 23° C. to 25° C.) for 30 minutes. Just prior to use, remove blocking buffer and wash plate 4 times with TBST buffer.
Seeding Cells • 1. An NIH3T3 cell line overexpressing a chimeric receptor containing the EGFR extracellular domain and intracellular HER2 kinase domain can be used for this assay. • 2. Choose dishes having 80-90% confluence for the experiment. Trypsinize cells and stop reaction by adding 10% fetal bovine serum. Suspend cells in DMEM medium (10% CS DMEM medium) and centrifuge once at 1500 rpm, at room temperature for 5 minutes. • 3. Resuspend cells in seeding medium (DMEM, 0.5% bovine serum), and count the cells using trypan blue. Viability above 90% is acceptable. Seed cells in DMEM medium (0.5% bovine serum) at a density of 10,000 cells per well, 100 μl per well, in a 96 well microtiter plate. Incubate seeded cells in 5% CO2. at 37° C. for about 40 hours.
Assay Procedures • 1. Check seeded cells for contamination using an inverted microscope. Dilute drug stock (10 mg/ml in DMSO) 1:10 in DMEM medium, then transfer 5 μl to a […] well for a final drug dilution of 1:200 and a final DMSO concentration of 1%. Control wells receive DMSO alone. Incubate in 5% CO2 at 37° C. for two hours. • 2. Prepare EGF ligand: dilute stock EGF in DMEM so that upon transfer of 10 μl dilute EGF (1:12 dilution), 100 nM final concentration is attained. • 3. Prepare fresh HNTG* sufficient for 100 μl per well, and place on ice.
• 4. After 120 minutes incubation with drug, add prepared […] ligand to cells, 10 μl per well, to a final concentration of 100 nM. Control wells receive DMEM alone. Incubate with shaking, at room temperature, for 5 minutes. • 5. Remove drug, EGF, and DMEM. Wash cells twice with PBS. Transfer HNTG* to cells, 100 μl per well. Place on ice for 5 minutes. Meanwhile, remove blocking buffer from other ELISA plate and wash with TBST as described above. • 6. With a pipette tip securely fitted to a micropipettor, scrape cells from plate and homogenize cell material by repeatedly aspirating and dispensing the HNTG* lysis buffer. Transfer lysate to a coated, blocked, and washed ELISA plate. Incubate shaking at room temperature for one hour. • 7. Remove lysate and wash 4 times with TBST. Transfer freshly diluted anti-Ptyr antibody to ELISA plate at 100 μl per well. Incubate shaking at room temperature for 30 minutes in the presence of the anti-Ptyr antiserum (1:3000 dilution in TBST). • 8. Remove the anti-Ptyr antibody and wash 4 times with TBST. Transfer the freshly diluted TAGO anti-rabbit IgG antibody to the ELISA plate at 100 μl per well. Incubate shaking at room temperature for 30 minutes (anti-rabbit IgG antibody: 1:3000 dilution in TBST). • 9. Remove TAGO detection antibody and wash 4 times with TBST. Transfer freshly prepared ABTS/H2O2 solution to ELISA plate, 100 μl per well. Incubate shaking at room temperature for 20 minutes. (ABTS/H2O2 solution: 1.0 μl 30% H2O2 in 10 ml ABTS stock). • 10. Stop reaction by adding 50 μl 5N H2SO4 (optional), and determine O.D. at 410 nm. • 11. The maximal phosphotyrosine signal is determined by subtracting the value of the negative controls from the positive controls. […]

PDGFR-β = molecular target: T2, PDGFR-β (Homo sapiens, UniProt P09619); assay: Biochemical PDGFR assay (ELISA, PDGFR-β expressing NIH 3T3 cell lysate); conditions: read-out: bio PDGF IC50
T2 construct: host or cells: NIH 3T3
T2 sequence (P09619 33-1106): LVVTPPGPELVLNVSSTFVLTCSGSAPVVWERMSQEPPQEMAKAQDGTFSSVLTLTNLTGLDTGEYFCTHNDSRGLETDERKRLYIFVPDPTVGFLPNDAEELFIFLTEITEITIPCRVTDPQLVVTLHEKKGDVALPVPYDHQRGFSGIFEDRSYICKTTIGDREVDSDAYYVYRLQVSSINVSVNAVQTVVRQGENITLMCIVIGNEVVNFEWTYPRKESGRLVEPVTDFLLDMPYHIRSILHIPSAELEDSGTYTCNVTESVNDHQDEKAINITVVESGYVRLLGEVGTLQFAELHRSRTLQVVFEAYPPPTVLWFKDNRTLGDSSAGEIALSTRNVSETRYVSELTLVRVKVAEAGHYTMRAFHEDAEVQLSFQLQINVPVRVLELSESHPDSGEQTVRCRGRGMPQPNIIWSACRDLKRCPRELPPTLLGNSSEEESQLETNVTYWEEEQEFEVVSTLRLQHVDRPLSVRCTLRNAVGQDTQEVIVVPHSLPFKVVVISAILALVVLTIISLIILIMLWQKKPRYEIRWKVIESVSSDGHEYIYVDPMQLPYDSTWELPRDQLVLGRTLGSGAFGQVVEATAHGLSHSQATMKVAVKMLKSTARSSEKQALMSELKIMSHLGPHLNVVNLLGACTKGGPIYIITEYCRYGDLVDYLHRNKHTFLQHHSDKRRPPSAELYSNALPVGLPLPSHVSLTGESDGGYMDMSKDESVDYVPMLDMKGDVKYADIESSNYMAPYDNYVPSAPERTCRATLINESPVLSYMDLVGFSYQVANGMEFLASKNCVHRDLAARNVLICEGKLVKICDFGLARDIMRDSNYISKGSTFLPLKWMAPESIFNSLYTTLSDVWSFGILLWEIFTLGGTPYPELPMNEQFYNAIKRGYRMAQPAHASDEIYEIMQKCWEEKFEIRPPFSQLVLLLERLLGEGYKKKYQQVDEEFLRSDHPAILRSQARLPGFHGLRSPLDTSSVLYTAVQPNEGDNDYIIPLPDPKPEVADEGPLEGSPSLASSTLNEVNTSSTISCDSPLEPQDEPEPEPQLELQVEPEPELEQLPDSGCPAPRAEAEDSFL
Text: This assay measures the in vitro kinase activity of PDGFR using ELISA.
Unless otherwise noted, the preparation of working solution-of the following reagents is the same as that for the Biochemical EGFR assay, above. • 1. […] 28D4C10 monoclonal anti-PDGFR antibody (Biochemistry Lab, SUGEN, Inc.). • 3. PBS (Dulbecco's Phosphate-Buffered Saline, Gibco Catalog No. 450-1300EB) • 4. TBST Buffer. • 5. Blocking Buffer. • 6. PDGFR-β expressing NIH 3T3 cell lysate (Screening Lab, SUGEN, Inc.). • 7. TBS Buffer. • 8. TBS+10% DMSO. • 9. […] MnCl2. • 11. Kinase buffer phosphorylation mix.
• 12. NUNC 96-well V bottom polypropylene plates (Applied Scientific Cat. No. AS-72092). • 13. Ethylenediaminetetraacetic acid (EDTA). • 14. Rabbit polyclonal anti-phosphotyrosine serum (Biochemistry Lab, SUGEN, Inc.). • 15. Goat anti-rabbit IgG peroxidase conjugate (Biosource Cat. No. ALI0404). • 16. 2,2′-azino-bis(3-ethylbenzthiazoline-6-sulfonic acid) (ABTS, Sigma Cat. No. A-1888). • 17. Hydrogen peroxide 30% solution (Fisher Cat. No. H325). • 18. ABTS/H2O2. • 19. 0.2 M HCl.
Procedure • 1. Coat Corning 96 well ELISA plates with 0.5 μg 28D4C10 in 100 μl PBS per well, store overnight at 4° C. • 2. Remove unbound 28D4C10 from wells by inverting plate to remove liquid. Wash 1× with dH2O. Pat the plate on a paper towel to remove excess liquid. • 3. Add 150 μl of Blocking Buffer to each well. Incubate for 30 min. at room temperature with shaking. • 4. Wash plate 3× with deionized water, then once with TBST. Pat plate on a paper towel to remove excess liquid and bubbles. • 5. Dilute lysate in HNTG (10 μg lysate/100 μl HNTG) • 6. Add 100 μl of diluted lysate to each well. Shake at room temperature for 60 min. • 7. Wash plates as described in 4, above. • 8. Add 80 μl working kinase buffer mix to ELISA plate containing captured PDGFR. • 9. Dilute test compound 1:10 in TBS in 96-well polypropylene plates (i.e., 10 μl compound+90 μl TBS). • 10. Add 10 μl diluted test compound to ELISA plate. […] Incubate for 30 minutes while shaking at room temperature. • 12. Add 10 μl ATP directly to all wells except negative control well (final well volume should be approximately 100 μl with 20 μM ATP in each well.) Incubate 30 minutes while shaking. • 13. After 30 minutes, stop reaction by adding 10 μl of 200 mM EDTA (pH 8.0) to each well. • 14. Wash 4× with deionized water, twice with TBST. • 15. Add 100 μl anti-phosphotyrosine (1:3000 dilution in TBST) per well. Incubate 30-45 min. at room temperature, with shaking. • 16. Wash as described in 4, above. • 17. Add 100 μl Biosource Goat anti-rabbit IgG peroxidase conjugate (1:2000 dilution in TBST) to each well. Incubate 30 min. at room temperature, with shaking. • 18. Wash as described in 4, above. • 19. Add 100 μl of ABTS/H2O2 solution to each well. • 20. Incubate 10 to 30 minutes with shaking. Remove any bubbles. • 21. If necessary stop reaction with the addition of 100 μl 0.2 M HCl per well. • 22. Read assay on Dynatech MR7000 ELISA reader: test filter: 410 nM, reference filter: 630 nM.

flkGST = molecular target: T3, flkGST (Homo sapiens, UniProt P35968); assay: bio flkGST assay; assay type: biochemical
T3 construct: GST
T3 sequence (P35968 786-1356 limits assumed): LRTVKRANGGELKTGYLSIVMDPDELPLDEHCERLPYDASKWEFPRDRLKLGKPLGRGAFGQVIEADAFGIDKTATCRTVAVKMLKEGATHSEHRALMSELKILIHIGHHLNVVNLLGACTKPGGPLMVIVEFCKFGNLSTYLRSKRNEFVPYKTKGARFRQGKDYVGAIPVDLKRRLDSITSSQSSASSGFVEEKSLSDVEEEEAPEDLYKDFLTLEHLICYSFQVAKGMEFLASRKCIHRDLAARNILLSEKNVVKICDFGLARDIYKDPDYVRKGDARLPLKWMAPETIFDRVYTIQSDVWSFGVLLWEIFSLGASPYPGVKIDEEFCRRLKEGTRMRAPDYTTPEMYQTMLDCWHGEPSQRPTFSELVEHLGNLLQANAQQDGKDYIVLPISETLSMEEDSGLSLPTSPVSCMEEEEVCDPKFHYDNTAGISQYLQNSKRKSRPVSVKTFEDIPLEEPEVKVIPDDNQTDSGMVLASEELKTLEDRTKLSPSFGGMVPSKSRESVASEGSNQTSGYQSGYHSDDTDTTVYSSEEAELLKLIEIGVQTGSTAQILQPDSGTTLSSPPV

EGFR, sequence (P00533 25-1210): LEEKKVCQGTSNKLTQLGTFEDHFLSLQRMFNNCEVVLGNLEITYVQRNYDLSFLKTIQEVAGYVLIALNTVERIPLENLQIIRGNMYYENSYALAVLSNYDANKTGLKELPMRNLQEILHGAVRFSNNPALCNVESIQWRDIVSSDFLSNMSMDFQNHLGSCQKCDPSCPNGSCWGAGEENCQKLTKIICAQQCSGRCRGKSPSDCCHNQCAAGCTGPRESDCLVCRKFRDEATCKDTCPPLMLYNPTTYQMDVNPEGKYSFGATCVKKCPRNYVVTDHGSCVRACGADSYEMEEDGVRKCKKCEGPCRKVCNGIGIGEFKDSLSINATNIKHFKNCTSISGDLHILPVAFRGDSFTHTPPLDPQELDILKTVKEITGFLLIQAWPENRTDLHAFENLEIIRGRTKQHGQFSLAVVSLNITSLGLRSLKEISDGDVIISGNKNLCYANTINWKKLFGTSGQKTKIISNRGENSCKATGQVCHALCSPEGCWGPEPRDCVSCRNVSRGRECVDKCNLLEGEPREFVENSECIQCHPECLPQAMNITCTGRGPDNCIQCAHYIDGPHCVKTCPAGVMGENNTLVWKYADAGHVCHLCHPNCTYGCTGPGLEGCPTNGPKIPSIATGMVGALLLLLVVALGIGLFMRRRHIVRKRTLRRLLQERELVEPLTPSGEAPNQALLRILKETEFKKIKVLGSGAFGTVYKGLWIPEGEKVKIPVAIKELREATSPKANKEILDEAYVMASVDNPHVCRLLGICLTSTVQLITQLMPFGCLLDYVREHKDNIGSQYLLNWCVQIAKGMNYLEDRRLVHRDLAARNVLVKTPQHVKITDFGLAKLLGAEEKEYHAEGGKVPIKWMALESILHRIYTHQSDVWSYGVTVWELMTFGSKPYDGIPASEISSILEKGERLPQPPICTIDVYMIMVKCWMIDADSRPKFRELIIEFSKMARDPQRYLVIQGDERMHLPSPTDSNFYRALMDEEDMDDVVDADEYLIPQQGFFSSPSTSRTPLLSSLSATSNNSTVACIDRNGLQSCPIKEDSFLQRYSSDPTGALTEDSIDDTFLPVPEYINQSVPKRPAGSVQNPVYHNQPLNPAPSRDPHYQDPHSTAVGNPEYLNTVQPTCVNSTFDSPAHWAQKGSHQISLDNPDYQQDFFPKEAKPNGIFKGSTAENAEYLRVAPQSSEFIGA

IC50 (EGFR) [µM]	IC50 [1] [µM]	IC50 (PDGFR-β) [µM]	IC50 (flkGST) [µM]	SMILES
> 100	> 100			Cc1c(C=C2C(=O)Nc3ccc(S(=O)(=O)N(C)C)cc32)[nH]c2ccccc12 (racemic) [Example 155, 3-(3-Methyl-1H-indol-2-ylmethylene)-2-oxo-2,3-dihydro-1H-indole-5-sulfonic acid dimethylamide]
		9.97	6.32	CCOC(=O)c1c(C)[nH]c(/C=C2\C(=O)Nc3ccc(OC)cc32)c1CCCN(C)C [Example 120, 4-(3-Dimethylaminopropyl)-5-(5-methoxy-2-oxo-1,2-dihydroindol-3-ylidenemethyl)-2-methyl-1H-pyrrole-3-carboxylic acid ethyl ester]
		26.7	1	CCOC(=O)c1c(C)[nH]c(/C=C2\C(=O)Nc3ccc(OC)cc32)c1CCCN1CCOCC1 [Example 121, 5-(5-Methoxy-2-oxo-1,2-dihydroindol-3-ylidenemethyl)-2-methyl-4-(3-morpholin-4-ylpropyl)-1H-pyrrole-3-carboxylic acid ethyl ester]
		2.13	0.51	CCOC(=O)c1c(C)[nH]c(/C=C2\C(=O)Nc3ccc(OC)cc32)c1CCCN1CCN(C)CC1 [Example 122, 5-(5-Methoxy-2-oxo-1,2-dihydroindol-3-ylidenemethyl)-2-methyl-4-[3-(4-methylpiperazin-1-yl)-propyl]-1h-pyrrole-3-carboxylic acid ethyl ester]
